According to ChEMBL document CHEMBL4765228, “Indole-like Trk receptor antagonists” (Eur J Med Chem, 2016):

Legend:
[1] = biological target: High affinity nerve growth factor receptor (Homo sapiens, UniProt P04629); experiment: Inhibition of human TRKA assessed as residual activity at 1 uM relative to control
[2] = biological target: Mitogen-activated protein kinase 8 (Homo sapiens) (UniProt P45983); experiment: Inhibition of human JNK1 assessed as residual activity at 1 uM relative to control
[3] = biological target: 5'-AMP-activated protein kinase catalytic subunit alpha-1 (Homo sapiens) (UniProt Q13131); experiment: Inhibition of human AMPKalpha1 (1 to 550 residues assessed as residual activity at 0.1 uM relative to control
[4] = biological target: Tyrosine-protein kinase BTK (Homo sapiens) (UniProt Q06187); experiment: Inhibition of human BTK assessed as residual activity at 0.1 uM relative to control
[5] = biological target: Insulin-like growth factor 1 receptor (Homo sapiens) (UniProt P08069); experiment: Inhibition of human IGF1R assessed as residual activity at 0.1 uM relative to control
[6] = biological target: Serine/threonine-protein kinase pim-1 (Homo sapiens) (UniProt P11309); experiment: Inhibition of human PIM1 assessed as residual activity at 0.1 uM relative to control
[7] = biological target: Proto-oncogene tyrosine-protein kinase Src (Homo sapiens) (UniProt P12931); experiment: Inhibition of human GST-HIS-tagged SRC assessed as residual activity at 1 uM relative to control
[8] = biological target: Tyrosine-protein kinase Lck (Homo sapiens) (UniProt P06239); experiment: Inhibition of human LCK assessed as residual activity at 0.1 uM relative to control
[9] = biological target: Ribosomal protein S6 kinase alpha-5 (Homo sapiens) (UniProt O75582); experiment: Inhibition of human RPS6KA5 assessed as residual activity at 1 uM relative to control
[10] = biological target: Mitogen-activated protein kinase kinase kinase 11 (Homo sapiens) (UniProt Q16584); experiment: Inhibition of human MAP3K11 assessed as residual activity at 0.1 uM relative to control
[11] = biological target: Serine/threonine-protein kinase Nek6 (Homo sapiens) (UniProt Q9HC98); experiment: Inhibition of human NEK6 assessed as residual activity at 1 uM relative to control
[12] = biological target: MAP/microtubule affinity-regulating kinase 3 (Homo sapiens) (UniProt P27448); experiment: Inhibition of human MARK3 assessed as residual activity at 1 uM relative to control
[13] = biological target: T1, Serine/threonine-protein kinase 3 (Homo sapiens) (UniProt Q13188); experiment: Inhibition of human MST2 assessed as residual activity at 0.1 uM relative to control
T1 sequence (whole entry): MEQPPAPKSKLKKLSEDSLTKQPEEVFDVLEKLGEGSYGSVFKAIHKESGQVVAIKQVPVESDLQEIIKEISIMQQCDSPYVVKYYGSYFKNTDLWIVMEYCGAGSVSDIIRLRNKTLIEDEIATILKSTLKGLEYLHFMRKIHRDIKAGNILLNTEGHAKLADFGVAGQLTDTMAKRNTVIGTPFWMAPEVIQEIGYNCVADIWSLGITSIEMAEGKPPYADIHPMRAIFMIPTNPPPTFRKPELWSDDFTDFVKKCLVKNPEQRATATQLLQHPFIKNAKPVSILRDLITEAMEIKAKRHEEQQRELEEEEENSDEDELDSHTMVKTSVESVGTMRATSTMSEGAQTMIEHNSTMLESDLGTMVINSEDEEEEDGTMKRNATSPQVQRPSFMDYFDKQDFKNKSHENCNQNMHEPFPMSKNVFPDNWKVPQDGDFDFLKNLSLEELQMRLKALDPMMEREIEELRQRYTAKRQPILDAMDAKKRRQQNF

[14] = biological target: Mitogen-activated protein kinase 14 (Homo sapiens) (UniProt Q16539); experiment: Inhibition of human p38-alpha assessed as residual activity at 0.1 uM relative to control
[15] = biological target: MAP/microtubule affinity-regulating kinase 3 (Homo sapiens) (UniProt P27448); experiment: Inhibition of human MARK3 assessed as residual activity at 0.1 uM relative to control
[16] = biological target: Tyrosine-protein kinase Lck (Homo sapiens) (UniProt P06239); experiment: Inhibition of human LCK assessed as residual activity at 1 uM relative to control
[17] = biological target: Dual specificity mitogen-activated protein kinase kinase 1 (Homo sapiens) (UniProt Q02750); experiment: Inhibition of human wild type MEK1 assessed as residual activity at 1 uM relative to control
[18] = biological target: SRSF protein kinase 1 (Homo sapiens) (UniProt Q96SB4); experiment: Inhibition of human SRPK1 assessed as residual activity at 1 uM relative to control
[19] = biological target: Serine/threonine-protein kinase pim-1 (Homo sapiens) (UniProt P11309); experiment: Inhibition of human PIM1 assessed as residual activity at 1 uM relative to control
[20] = biological target: T2, Mitogen-activated protein kinase kinase kinase 7 (Homo sapiens) (UniProt O43318); experiment: Inhibition of human MAP3K7 assessed as residual activity at 0.1 uM relative to control
T2 sequence (whole entry): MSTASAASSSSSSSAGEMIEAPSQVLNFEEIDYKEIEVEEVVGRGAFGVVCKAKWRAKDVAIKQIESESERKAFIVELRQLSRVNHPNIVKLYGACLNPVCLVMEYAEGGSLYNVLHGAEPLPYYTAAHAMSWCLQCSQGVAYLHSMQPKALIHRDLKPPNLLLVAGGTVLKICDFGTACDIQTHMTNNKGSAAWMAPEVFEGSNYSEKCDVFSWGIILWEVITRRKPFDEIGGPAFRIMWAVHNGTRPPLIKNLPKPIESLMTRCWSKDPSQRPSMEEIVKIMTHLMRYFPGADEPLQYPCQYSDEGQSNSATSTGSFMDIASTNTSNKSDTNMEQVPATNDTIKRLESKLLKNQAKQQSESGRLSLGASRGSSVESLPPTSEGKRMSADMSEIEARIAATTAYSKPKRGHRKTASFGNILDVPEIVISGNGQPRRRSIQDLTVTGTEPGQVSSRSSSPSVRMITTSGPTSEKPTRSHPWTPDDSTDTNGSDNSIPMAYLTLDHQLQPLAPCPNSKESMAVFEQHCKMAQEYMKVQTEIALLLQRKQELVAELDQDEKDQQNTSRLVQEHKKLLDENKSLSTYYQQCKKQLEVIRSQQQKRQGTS

[21] = biological target: Receptor tyrosine-protein kinase erbB-4 (Homo sapiens) (UniProt Q15303); experiment: Inhibition of human ERBB4 assessed as residual activity at 1 uM relative to control
[22] = biological target: T1, Serine/threonine-protein kinase 3 (Homo sapiens); experiment: Inhibition of human MST2 assessed as residual activity at 1 uM relative to control

Sequence of Mitogen-activated protein kinase 14 (Homo sapiens) (Q16539 whole entry): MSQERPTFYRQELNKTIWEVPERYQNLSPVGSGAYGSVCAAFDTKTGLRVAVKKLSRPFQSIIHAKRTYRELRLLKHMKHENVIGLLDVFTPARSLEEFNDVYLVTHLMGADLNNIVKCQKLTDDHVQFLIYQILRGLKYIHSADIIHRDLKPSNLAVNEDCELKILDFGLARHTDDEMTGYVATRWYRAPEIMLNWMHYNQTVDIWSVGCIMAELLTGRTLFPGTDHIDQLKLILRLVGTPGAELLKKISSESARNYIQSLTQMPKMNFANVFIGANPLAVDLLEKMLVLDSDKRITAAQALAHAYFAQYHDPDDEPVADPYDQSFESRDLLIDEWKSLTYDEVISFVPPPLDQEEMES
Sequence of Mitogen-activated protein kinase kinase kinase 11 (Homo sapiens) (Q16584 whole entry, looked up): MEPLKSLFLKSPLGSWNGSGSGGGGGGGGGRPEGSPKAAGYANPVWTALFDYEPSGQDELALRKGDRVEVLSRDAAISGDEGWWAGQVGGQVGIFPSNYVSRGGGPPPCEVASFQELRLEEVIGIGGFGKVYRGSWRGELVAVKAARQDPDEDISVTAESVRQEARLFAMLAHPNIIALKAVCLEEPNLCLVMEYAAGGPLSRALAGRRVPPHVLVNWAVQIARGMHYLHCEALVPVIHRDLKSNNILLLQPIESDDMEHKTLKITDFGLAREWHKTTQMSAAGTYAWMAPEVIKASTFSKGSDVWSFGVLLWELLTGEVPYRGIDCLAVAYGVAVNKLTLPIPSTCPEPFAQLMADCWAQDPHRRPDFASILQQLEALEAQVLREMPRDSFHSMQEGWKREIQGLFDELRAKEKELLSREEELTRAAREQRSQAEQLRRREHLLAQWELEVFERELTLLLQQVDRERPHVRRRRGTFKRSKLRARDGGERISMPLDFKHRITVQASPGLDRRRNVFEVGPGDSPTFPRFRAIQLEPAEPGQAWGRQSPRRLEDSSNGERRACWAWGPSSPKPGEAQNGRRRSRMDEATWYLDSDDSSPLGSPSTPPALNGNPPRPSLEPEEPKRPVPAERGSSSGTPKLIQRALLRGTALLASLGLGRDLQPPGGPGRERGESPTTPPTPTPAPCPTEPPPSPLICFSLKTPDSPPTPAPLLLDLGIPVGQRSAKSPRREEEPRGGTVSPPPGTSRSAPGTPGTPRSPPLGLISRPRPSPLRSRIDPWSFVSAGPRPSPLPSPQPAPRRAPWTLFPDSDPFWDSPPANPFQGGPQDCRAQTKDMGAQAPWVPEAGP
Sequence of Proto-oncogene tyrosine-protein kinase Src (Homo sapiens) (P12931 2-536 limits assumed): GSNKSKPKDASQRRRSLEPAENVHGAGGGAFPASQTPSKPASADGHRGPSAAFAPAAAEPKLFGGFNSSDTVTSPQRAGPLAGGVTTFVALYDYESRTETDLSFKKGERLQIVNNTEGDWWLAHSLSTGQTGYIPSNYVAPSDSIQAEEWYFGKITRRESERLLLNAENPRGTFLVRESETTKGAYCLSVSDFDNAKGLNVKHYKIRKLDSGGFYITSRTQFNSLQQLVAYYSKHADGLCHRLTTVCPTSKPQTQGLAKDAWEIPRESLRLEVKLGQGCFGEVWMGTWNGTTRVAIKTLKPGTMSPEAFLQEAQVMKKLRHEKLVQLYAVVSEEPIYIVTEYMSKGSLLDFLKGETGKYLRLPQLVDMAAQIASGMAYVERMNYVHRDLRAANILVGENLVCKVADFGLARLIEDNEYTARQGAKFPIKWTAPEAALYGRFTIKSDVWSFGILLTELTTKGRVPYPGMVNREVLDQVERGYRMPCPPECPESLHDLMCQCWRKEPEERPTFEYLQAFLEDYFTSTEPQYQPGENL
Sequence of Mitogen-activated protein kinase 8 (Homo sapiens) (P45983 whole entry, the tested form may be a part): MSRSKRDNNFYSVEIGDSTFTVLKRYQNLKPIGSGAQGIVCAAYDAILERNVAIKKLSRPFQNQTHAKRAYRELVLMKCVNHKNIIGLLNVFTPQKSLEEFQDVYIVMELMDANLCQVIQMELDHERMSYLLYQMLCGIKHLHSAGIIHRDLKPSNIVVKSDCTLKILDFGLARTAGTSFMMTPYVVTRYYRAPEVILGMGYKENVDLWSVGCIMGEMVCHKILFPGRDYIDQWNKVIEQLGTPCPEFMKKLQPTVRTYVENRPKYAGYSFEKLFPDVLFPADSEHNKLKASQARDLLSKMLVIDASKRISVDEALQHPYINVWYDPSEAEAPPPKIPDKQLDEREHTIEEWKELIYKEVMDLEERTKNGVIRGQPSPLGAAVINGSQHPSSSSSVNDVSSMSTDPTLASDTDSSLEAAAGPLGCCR
Sequence of MAP/microtubule affinity-regulating kinase 3 (Homo sapiens) (P27448 whole entry, looked up): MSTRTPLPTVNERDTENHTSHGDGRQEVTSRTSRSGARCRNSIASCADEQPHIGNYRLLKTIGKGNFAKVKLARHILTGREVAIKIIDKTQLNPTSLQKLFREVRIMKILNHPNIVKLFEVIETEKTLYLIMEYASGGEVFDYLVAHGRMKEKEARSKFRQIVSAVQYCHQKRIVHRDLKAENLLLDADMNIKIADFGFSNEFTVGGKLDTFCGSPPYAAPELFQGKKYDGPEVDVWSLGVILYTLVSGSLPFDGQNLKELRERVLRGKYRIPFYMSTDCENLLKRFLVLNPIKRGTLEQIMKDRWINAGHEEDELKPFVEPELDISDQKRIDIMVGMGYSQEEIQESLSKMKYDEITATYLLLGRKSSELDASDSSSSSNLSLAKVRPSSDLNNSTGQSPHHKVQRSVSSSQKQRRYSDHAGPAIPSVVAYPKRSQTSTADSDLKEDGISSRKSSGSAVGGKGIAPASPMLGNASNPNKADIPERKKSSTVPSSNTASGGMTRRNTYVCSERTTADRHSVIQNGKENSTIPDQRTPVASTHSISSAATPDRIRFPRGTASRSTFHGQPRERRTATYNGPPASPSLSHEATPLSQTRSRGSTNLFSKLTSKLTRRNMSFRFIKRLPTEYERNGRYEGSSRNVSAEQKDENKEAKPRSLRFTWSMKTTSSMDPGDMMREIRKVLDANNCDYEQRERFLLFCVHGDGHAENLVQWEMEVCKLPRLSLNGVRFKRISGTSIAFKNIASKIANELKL
Sequence of Dual specificity mitogen-activated protein kinase kinase 1 (Homo sapiens) (Q02750 whole entry): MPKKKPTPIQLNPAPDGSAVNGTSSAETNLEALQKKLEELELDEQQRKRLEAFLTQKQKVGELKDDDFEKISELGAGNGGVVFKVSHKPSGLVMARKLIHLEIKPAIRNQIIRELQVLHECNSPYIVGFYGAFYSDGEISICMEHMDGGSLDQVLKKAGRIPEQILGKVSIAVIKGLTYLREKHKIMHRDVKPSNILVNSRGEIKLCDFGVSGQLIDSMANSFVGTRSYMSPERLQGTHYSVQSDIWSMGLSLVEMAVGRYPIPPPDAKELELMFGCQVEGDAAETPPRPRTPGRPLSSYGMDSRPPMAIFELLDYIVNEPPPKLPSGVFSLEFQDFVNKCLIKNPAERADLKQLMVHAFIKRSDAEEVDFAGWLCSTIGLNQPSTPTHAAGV
Sequence of High affinity nerve growth factor receptor (P04629 33-796 limits assumed): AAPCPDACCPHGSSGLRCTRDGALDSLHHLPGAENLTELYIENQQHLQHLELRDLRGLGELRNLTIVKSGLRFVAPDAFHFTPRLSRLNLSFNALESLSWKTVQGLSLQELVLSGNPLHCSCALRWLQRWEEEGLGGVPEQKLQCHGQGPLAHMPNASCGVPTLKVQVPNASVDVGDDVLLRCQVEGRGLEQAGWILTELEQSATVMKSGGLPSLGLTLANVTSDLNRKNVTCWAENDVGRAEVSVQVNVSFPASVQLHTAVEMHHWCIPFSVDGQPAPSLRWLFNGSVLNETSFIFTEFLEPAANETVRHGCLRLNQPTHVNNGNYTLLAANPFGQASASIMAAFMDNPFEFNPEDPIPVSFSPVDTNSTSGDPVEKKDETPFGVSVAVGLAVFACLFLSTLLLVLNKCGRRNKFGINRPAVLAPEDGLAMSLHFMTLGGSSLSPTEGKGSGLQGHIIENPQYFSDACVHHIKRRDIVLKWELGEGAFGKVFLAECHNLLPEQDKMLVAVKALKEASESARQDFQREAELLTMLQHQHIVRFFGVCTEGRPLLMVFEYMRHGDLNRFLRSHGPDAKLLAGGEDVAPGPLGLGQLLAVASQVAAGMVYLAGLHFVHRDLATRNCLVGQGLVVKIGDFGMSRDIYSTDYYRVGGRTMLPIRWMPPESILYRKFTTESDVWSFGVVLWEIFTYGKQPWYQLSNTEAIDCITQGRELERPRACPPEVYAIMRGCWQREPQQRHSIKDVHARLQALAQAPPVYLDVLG
Sequence of SRSF protein kinase 1 (Homo sapiens) (Q96SB4 whole entry): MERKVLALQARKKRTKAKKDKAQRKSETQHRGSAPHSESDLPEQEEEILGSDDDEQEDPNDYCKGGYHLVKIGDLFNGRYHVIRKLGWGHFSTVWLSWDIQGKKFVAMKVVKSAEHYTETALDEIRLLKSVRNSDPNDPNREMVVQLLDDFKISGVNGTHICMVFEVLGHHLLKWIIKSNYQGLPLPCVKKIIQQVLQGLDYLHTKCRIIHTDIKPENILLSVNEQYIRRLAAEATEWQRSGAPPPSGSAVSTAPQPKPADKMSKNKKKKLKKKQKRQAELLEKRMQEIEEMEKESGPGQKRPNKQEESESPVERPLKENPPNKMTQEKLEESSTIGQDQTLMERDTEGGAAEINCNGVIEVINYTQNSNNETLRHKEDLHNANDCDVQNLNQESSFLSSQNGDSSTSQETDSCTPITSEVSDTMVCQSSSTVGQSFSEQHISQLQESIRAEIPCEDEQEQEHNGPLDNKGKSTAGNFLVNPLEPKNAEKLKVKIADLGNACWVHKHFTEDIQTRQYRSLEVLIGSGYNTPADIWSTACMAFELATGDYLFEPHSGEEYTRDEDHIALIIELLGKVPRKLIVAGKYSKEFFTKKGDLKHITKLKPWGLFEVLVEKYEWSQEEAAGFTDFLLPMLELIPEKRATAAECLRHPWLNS

Activity [1] [%]	Activity [2] [%]	Activity [3] [%]	Activity [4] [%]	Activity [5] [%]	Activity [6] [%]	Activity [7] [%]	Activity [8] [%]	Activity [9] [%]	Activity [10] [%]	Activity [11] [%]	Activity [12] [%]	Activity [13] [%]	Activity [14] [%]	Activity [15] [%]	Activity [16] [%]	Activity [17] [%]	Activity [18] [%]	Activity [19] [%]	Activity [20] [%]	Structure (SMILES)	further results
1	95	94	117	105	96	91	65	95	34	98	90	86	106	96	32	71	99	88	93	COc1ccc2c(c1)c(/C=C1\C(=O)Nc3ccc(S(N)(=O)=O)cc31)cn2C	Activity [21]: 87%; Activity [22]: 84%
6	100	98	89	94	104	70	81	108	84	100	97	101	95	93	64	97	95	97	106	COc1ccc2c(c1)c(/C=C1\C(=O)Nc3ccc(S(=O)(=O)N(C)C)cc31)cn2C	Activity [21]: 85%; Activity [22]: 104%
2	94	83	111	105	105	108	64	93	36	109	88	91	107	93	50	59	101	93	85	Cn1cc(/C=C2\C(=O)Nc3ccc(S(N)(=O)=O)cc32)c2ccccc21	Activity [21]: 101%; Activity [22]: 62%
2	97	103	95	102	102	68	62	107	80	103	96	98	97	103	33	98	94	95	101	CN(C)S(=O)(=O)c1ccc2c(c1)/C(=C/c1cn(C)c3ccc(O)cc13)C(=O)N2	Activity [21]: 95%; Activity [22]: 83%
0	87	101	100	98	103	74	72	95	66	108	93	101	102	101	61	72	93	79	93	COc1ccc2[nH]cc(/C=C3\C(=O)Nc4ccc(S(N)(=O)=O)cc43)c2c1	Activity [21]: 60%; Activity [22]: 64%
3	112	104	97	96	94	73	45	88	76	97	87	95	102	100	41	93	101	88	104	CNS(=O)(=O)c1ccc2c(c1)/C(=C/c1cn(C)c3ccc(OC)cc13)C(=O)N2	Activity [21]: 42%; Activity [22]: 77%
